Assay results as given in patent US20100311759A1, “ANTIPARASITIC AGENT FOR FISH AND METHOD OF CONTROLLING PROLIFERATION OF FISH PARASITES” (NIPPON SUISAN KAISHA, LTD., priority 2007, published 2010).

System: Cryptocaryon irritans
Assay: Examples 3 and 4: oral administration of single inhibitors and a combination, body length of Cryptocaryon irritans on Pagrus major (FIG. 4)
Format: in vivo
Conditions: 60 mg/kg fish body weight/day for three days; 60 parasites per plot; P≦0.01
Excerpt: During the rearing period, 1.4 liters/min. of seawater was supplied. […] After exposure, seven fish each were moved into six 100-liter aquariums. During the rearing period, 1.4 liters/min. of seawater was supplied.

Row | Molecule | growth rate of parasites (body length as percentage of control plot), difference from control plot
1 | N=C(N)c1ccc(OCCCCCOc2ccc(C(=N)N)cc2)cc1.O=S(=O)(O)CCO.O=S(=O)(O)CCO [PMD, isethionic acid pentamidine salt] | statistically significant difference
2 | CN(Cc1cnc2nc(N)nc(N)c2n1)c1ccc(C(=O)N[C@@H](CCC(=O)O)C(=O)O)cc1 [methotrexate] | statistically significant difference
3 | COc1cc(Cc2cnc(N)nc2N)cc(OC)c1OC [trimethoprim] | statistically significant difference

Same assay, conditions: 300 mg/kg fish body weight/day for three days; 60 parasites per plot; P≦0.01

Row | Molecule | growth rate of parasites (body length as percentage of control plot), difference from control plot
4 | COc1cc(NS(=O)(=O)c2ccc(N)cc2)nc(OC)n1 [sulfadimethoxine] | statistically significant difference
5 | Cc1ccnc(NS(=O)(=O)c2ccc(N)cc2)n1 [sulfamerazine] | statistically significant difference
6 | Cc1nnc(NS(=O)(=O)c2ccc(N)cc2)s1 [sulfamethizole] | statistically significant difference
7 | COc1cc(NS(=O)(=O)c2ccc(N)cc2)ncn1 [sulfamonomethoxine] | statistically significant difference
8 | Cc1cc(NS(=O)(=O)c2ccc(N)cc2)nc(C)n1 [sulfisomidine] | statistically significant difference
9 | sulfisozole | statistically significant difference

System: Cryptocaryon irritans
Assay: Example 1: oral administration against parasitism of Cryptocaryon irritans on Pagrus major (1)
Conditions: 50 mg trimethoprim/kg body weight/day orally three days; three days after the exposure

Row | Molecule | number of parasites (left gills, FIG. 1, control plot = one)
10 | COc1cc(Cc2cnc(N)nc2N)cc(OC)c1OC [trimethoprim] | tend to be large
